Several values for one entry are separate records, joined by “and”; a condition that tells them apart may be missing. Equal values may be shown once. Inconclusive results and toxic doses are left out. The calls were made as follows: active = survival T/C of 150% or more; inactive = T/C below 125% in these data.
System: P388 leukemia ip, CD2F1 mice, survival T/C
Experiment: NCI In Vivo Anticancer Drug Screen. Data for tumor model P388 Leukemia (intraperitoneal) in CD2F1 (CDF1) mice
Conditions: endpoint: median survival time, higher = longer survival
Outline: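 Mice carrying the transplanted tumor received test compound or vehicle. Survival was recorded in each group, and the value is the treated-group measurement divided by that of the vehicle-treated control group.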

[1] = dose: 50.0 mg/kg/injection, schedule: Q01DX005 (ip), vehicle: Klucel (hydroxypropylcellulose) (HPC)
[2] = dose: 100.0 mg/kg/injection, schedule: Q01DX005 (ip), vehicle: Klucel (hydroxypropylcellulose) (HPC)
[3] = dose: 200.0 mg/kg/injection, schedule: Q01DX005 (ip), vehicle: Klucel (hydroxypropylcellulose) (HPC)
[4] = dose: 100.0 mg/kg/injection, schedule: Q01DX001 (ip), vehicle: Klucel (hydroxypropylcellulose) (HPC)
[5] = dose: 200.0 mg/kg/injection, schedule: Q01DX001 (ip), vehicle: Klucel (hydroxypropylcellulose) (HPC)
[6] = dose: 50.0 mg/kg/injection, schedule: Q01DX005 (ip), vehicle: saline with Tween-80
[7] = dose: 100.0 mg/kg/injection, schedule: Q01DX005 (ip), vehicle: saline with Tween-80
[8] = dose: 200.0 mg/kg/injection, schedule: Q01DX005 (ip), vehicle: saline with Tween-80
[9] = dose: 400.0 mg/kg/injection, schedule: Q01DX001 (ip), vehicle: Klucel (hydroxypropylcellulose) (HPC)
[10] = dose: 50.0 mg/kg/injection, schedule: Q01DX009 (ip), vehicle: Klucel (hydroxypropylcellulose) (HPC)
[11] = dose: 100.0 mg/kg/injection, schedule: Q01DX009 (ip), vehicle: Klucel (hydroxypropylcellulose) (HPC)
[12] = dose: 200.0 mg/kg/injection, schedule: Q01DX009 (ip), vehicle: Klucel (hydroxypropylcellulose) (HPC)
[13] = dose: 100.0 mg/kg/injection, schedule: Q01DX001 (ip), vehicle: saline with Tween-80
[14] = dose: 200.0 mg/kg/injection, schedule: Q01DX001 (ip), vehicle: saline with Tween-80
[15] = dose: 400.0 mg/kg/injection, schedule: Q01DX001 (ip), vehicle: saline with Tween-80

Measured: T/C

CC1(C)Oc2cc3oc(=O)ccc3c3c2C2C1CCC(C)(O3)C2O (stereo not given)
inactive: [1] 102 % of control | [2] 96 % of control | [3] 105 % of control

O=C1CCSC(=S)N1N1CCN(N2C(=O)CCSC2=S)CC1
inactive: [4] 102 % of control | [5] 93 % of control

OC1C2CCC(C2)C1CN1CCOCC1 (stereo not given)
inactive: dose: 25.0 mg/kg/injection, schedule: Q01DX005 (ip), vehicle: saline with Tween-80 99 % of control | [6] 99 % of control | [7] 99 % of control | [8] 96 % of control

COc1cc([C@@H]2Oc3c(OC)cc4ccc(=O)oc4c3O[C@H]2CO)ccc1O
inactive: dose: 200.0 mg/kg/injection, schedule: Q01DX005 (ip), vehicle: saline + alcohol 87 % of control | dose: 300.0 mg/kg/injection, schedule: Q01DX005 (ip), vehicle: saline + alcohol 94 % of control

COc1cc(-c2coc3cc(O)ccc3c2=O)c(O)c(OC)c1OC
inactive: [4] 101 % of control | [5] 101 % of control | [9] 102 % of control

CC(=O)OCC1=COC(OC(=O)CC(C)(C)OC(C)=O)C2C1=CC(OC(=O)CC(C)C)[C@@]21CO1 (stereo not given in full)
inactive: dose: 10.0 mg/kg/injection, schedule: Q01DX005 (ip), vehicle: saline 97 % of control | dose: 20.0 mg/kg/injection, schedule: Q01DX005 (ip), vehicle: saline 93 % of control | dose: 40.0 mg/kg/injection, schedule: Q01DX005 (ip), vehicle: saline 99 % of control

O=c1cc(-c2ccccc2)nc(Sc2ccc([N+](=O)[O-])cc2[N+](=O)[O-])[nH]1
inactive: [10] 98 % of control | [11] 98 % of control | [12] 93 % of control

Cc1ccc(C=C2c3ccccc3C(=O)c3ccccc32)cc1
inactive: [1] 108 % of control | [2] 107 % of control | [3] 105 % of control

CCOC(=O)C(C)C(=O)C(C)N1C(=O)c2ccccc2C1=O (stereo not given)
inactive: dose: 25.0 mg/kg/injection, schedule: Q04DX003 (ip), vehicle: other 102 % of control | dose: 50.0 mg/kg/injection, schedule: Q04DX003 (ip), vehicle: other 96 % of control | dose: 100.0 mg/kg/injection, schedule: Q04DX003 (ip), vehicle: other 93 % of control | dose: 200.0 mg/kg/injection, schedule: Q04DX003 (ip), vehicle: other 93 % of control | dose: 400.0 mg/kg/injection, schedule: Q04DX003 (ip), vehicle: other 91 % of control

Nc1ccc2nc3c(N)ccc(N)c3nc2c1
inactive: dose: 3.75 mg/kg/injection, schedule: Q01DX005 (ip), vehicle: saline 100 % of control and 103 % of control | dose: 7.5 mg/kg/injection, schedule: Q01DX005 (ip), vehicle: saline 100 % of control and 105 % of control | dose: 15.0 mg/kg/injection, schedule: Q01DX005 (ip), vehicle: saline 100 % of control and 109 % of control | dose: 30.0 mg/kg/injection, schedule: Q01DX005 (ip), vehicle: saline 111 % of control and 116 % of control | dose: 60.0 mg/kg/injection, schedule: Q01DX005 (ip), vehicle: saline 116 % of control | dose: 120.0 mg/kg/injection, schedule: Q01DX005 (ip), vehicle: saline 118 % of control

C=CC1(C)OC(=O)c2cc(C)c(OC)cc21 (stereo not given)
inactive: dose: 50.0 mg/kg/injection, schedule: Q01DX001 (ip), vehicle: saline with Tween-80 100 % of control | [13] 100 % of control | [14] 95 % of control | [15] 94 % of control

CCCCC(CC)CN(CC(CC)CCCC)C(=O)C(C)O (stereo not given)
inactive: [6] 105 % of control | [7] 103 % of control | [8] 108 % of control

CC1(C)OC(=O)C(C)(C2(O)C=CCCC2)O1 (stereo not given)
inactive: [4] 102 % of control | [5] 102 % of control | [9] 101 % of control

O=C(NC(=O)c1ccccc1F)Nc1ccc(C(F)(F)F)cc1
inactive: [10] 102 % of control | [11] 101 % of control | [12] 99 % of control

NC(=O)Nc1cc2oc(=O)[nH]c2cc1Cl
inactive: [6] 94 % of control | [7] 95 % of control | [8] 90 % of control

CCOC(=O)/C(C#N)=C/c1ccc(OC)c(OC)c1
inactive: [1] 99 % of control | [2] 108 % of control | [3] 100 % of control

COC1/C=C/OC2(C)Oc3c(C)c(O)c4c(O)c(c5c(nc(-c6ccco6)n5-c5ccccc5)c4c3C2=O)NC(=O)/C(C)=C\C=C\C(C)C(O)C(C)C(O)C(C)C(OC(C)=O)C1C (stereo not given)
inactive: dose: 25.0 mg/kg/injection, schedule: Q01DX009 (ip), vehicle: Klucel (hydroxypropylcellulose) (HPC) 89 % of control | [10] 95 % of control | [11] 95 % of control | [12] 93 % of control

Cn1cccc1/C=N/N1CC(=O)N(c2ccccc2)CC1=O
inactive: [6] 108 % of control | [7] 100 % of control

C#Cc1cccc(N=Cc2cc([N+](=O)[O-])ccc2O)c1
inactive: [6] 100 % of control | [7] 99 % of control | [8] 93 % of control

CCCCCOC(=O)CC(N)C(=O)OCCCCC (stereo not given)
inactive: dose: 50.0 mg/kg/injection, schedule: Q01DX009 (ip), vehicle: saline with Tween-80 100 % of control | dose: 100.0 mg/kg/injection, schedule: Q01DX009 (ip), vehicle: saline with Tween-80 100 % of control | dose: 200.0 mg/kg/injection, schedule: Q01DX009 (ip), vehicle: saline with Tween-80 90 % of control

CCCCN(CCCC)C(=S)C(O)(c1ccccc1)c1ccccc1
inactive: [10] 95 % of control | [11] 91 % of control | [12] 90 % of control

COc1cccc2c1C(=O)c1c(O)c3c(c(O)c1C2=O)CC(O)(C(C)=O)CC3OC1CC(NCC2OC(C(=O)O)C(O)C2O)C(O)C(C)O1 (stereo not given)
inactive: dose: 3.13 mg/kg/injection, schedule: Q04DX003 (ip), vehicle: water 99 % of control | dose: 6.25 mg/kg/injection, schedule: Q04DX003 (ip), vehicle: water 102 % of control | dose: 12.5 mg/kg/injection, schedule: Q04DX003 (ip), vehicle: water 109 % of control | dose: 25.0 mg/kg/injection, schedule: Q04DX003 (ip), vehicle: water 116 % of control | dose: 50.0 mg/kg/injection, schedule: Q04DX003 (ip), vehicle: water 110 % of control

Nc1ccc(OCCNC(=O)c2ccc(S(=O)(=O)F)cc2)c(Cl)c1
inactive: [13] 90 % of control | [14] 100 % of control | [15] 104 % of control

O=C1CCC(=O)N1CN(CS(=O)(=O)c1ccc(Cl)cc1)c1ccc(Cl)cc1
inactive: dose: 60.0 mg/kg/injection, schedule: Q01DX005 (ip), vehicle: Klucel (hydroxypropylcellulose) (HPC) 90 % of control | dose: 120.0 mg/kg/injection, schedule: Q01DX005 (ip), vehicle: Klucel (hydroxypropylcellulose) (HPC) 88 % of control | dose: 240.0 mg/kg/injection, schedule: Q01DX005 (ip), vehicle: Klucel (hydroxypropylcellulose) (HPC) 90 % of control

CC(C)(C)c1cc2c(O)c(c1)Cc1cc(C(C)(C)C)cc(c1O)Cc1cc(C(C)(C)C)cc(c1O)Cc1cc(C(C)(C)C)cc(c1O)C2
inactive: [1] 100 % of control | [2] 102 % of control | [3] 96 % of control

CC(=O)Oc1cc2c(cc1OC(C)=O)OCC(c1ccccc1)C2 (stereo not given)
inactive: dose: 60.0 mg/kg/injection, schedule: Q01DX005 (ip), vehicle: saline with Tween-80 98 % of control | dose: 120.0 mg/kg/injection, schedule: Q01DX005 (ip), vehicle: saline with Tween-80 98 % of control | dose: 240.0 mg/kg/injection, schedule: Q01DX005 (ip), vehicle: saline with Tween-80 97 % of control

From PubChem BioAssay AID330 (DTP/NCI, 2004)
